In US7125891B2, “Tripeptidyl peptidase inhibitors” (Janssen Pharmaceutica N.V., priority 2000, dated 2006):
Counter-ions that a name gives are not always drawn.

Row | melting point [°C] | Compound
1 | 105 to 106 | CCc1cn(C)c(C2Cc3ccccc3N2C(C)=O)n1 (stereo not shown)
2 | 77 to 80 | CCCc1cnc(C2Cc3ccccc3N2C(=O)C(C)N(C)C(=O)OC(C)C)[nH]1 (stereo not shown)
3 | 208 to 209 | CCc1cnc(C2Cc3ccccc3N2C(=O)Nc2ccccc2[N+](=O)[O-])[nH]1 (stereo not shown)
4 | 174 to 175 | CCCc1cnc(C2Cc3ccccc3N2C(C)=O)[nH]1 (stereo not shown)
5 | 93 to 94 | CCCc1nc(C2Cc3ccccc3N2C(C)=O)no1 (stereo not shown)
6 | 132 to 140 | CCCc1cnc(C2Cc3ccccc3N2C(=O)C(N)CC)[nH]1 (stereo not drawn) (as salt: HCl) (hydrate or solvate) [Compound 15, [2S-[1(R*),2R*]]-α-ethyl-2,3-dihydro-β-oxo-2-(4-propyl-1H-imidazol-2-yl)-1H-indole-1-ethanamine dihydrochloride dihydrate]
7 | 106 to 108 | CCc1cnc(C2Cc3ccccc3N2C(=O)Nc2ccccc2N)[nH]1 (stereo not shown) (as salt: trifluoroacetate)
8 | 98 to 103 | CCc1cnc(C2Cc3ccccc3N2C(=O)c2ccccc2C(=O)O)[nH]1 (stereo not shown) (as salt: trifluoroacetate)
9 | 208 to 211 | NCC(=O)N1c2ccccc2CC1c1nc2cc(C(=O)O)ccc2[nH]1 (stereo not shown) (as salt: trifluoroacetate) (hydrate or solvate) [Compound 62, 2-[1-(aminoacetyl)-2,3-dihydro-1H-indol-2-yl]-1H-benzimidazole-5-carboxylic acid monohydrate trifluoroacetate (1:2)]
10 | 160 to 162 | CCCc1nc(C2Cc3ccccc3N2C(=O)CN)no1 (stereo not drawn) (as salt: trifluoroacetate) [Compound 90, 2,3-dihydro-β-oxo-2-(5-propyl-1,2,4-oxadiazol-3-yl)-1H-indole-1-ethanamine trifluoroacetate (1:1)]
